Patent US10954300B2, “Use of pentoxifylline with immune checkpoint-blockade therapies for the treatment of melanoma” (THE TRUSTEES OF COLUMBIA UNIVERSITY IN THE CITY OF NEW YORK, priority 2015, dated 2021)
Entries after “also recorded” stand apart in the source; their conditions may differ.

How the values were obtained:
B16F1 melanoma cells = experiment: B16F1 melanoma growth, early treatment with PTXF or IT-603; type: in vivo, C57Bl/6 WT mice
Protocol: B16F1, B16F10 and CT-26 cells were obtained from the ATCC and grown in DMEM+10% FBS medium. BRAF^CAPten^−/− cells were originally derived from an in vivo melanoma induced by topical tamoxifen treatment of Ubc^cre-ERT2 BRAF^CA Pten^F/F, as described. All cell lines were periodically tested for murine pathogens. Cells were grown in DMEM supplemented with 10% FBS. When confluence reached 60-70%, cells were detached and washed in PBS1X. Fifty thousand cells diluted in 50 μL PBS1X were injected subcutaneously in the shaved abdomen of each mouse. Tumor growth was measured daily using a caliper.
Pentoxifylline (Sigma) powder was dissolved in PBS1X and sterile filtered prior to each injection. […] For the “curative” regimen, mice were treated daily from day 5-6 (when the tumor was visible and palpable) to day 11, following the same methods. IT-603 was reconstituted in DMSO and stored at −80° C. It then was diluted in PBS1X and sterile-filtered prior to each injection. […]
5×10^4 B16F1 or 5×10^5 CT-26 or BRAF^CAPten^−/− cells diluted in sterile PBS1X were injected subcutaneously into the shaved flank of each mouse. For metastasis experiments, 2.5×10^4 B16F10 cells were injected intravenously in the tail vein. […] Anti-PD-1 (RMP1-14), anti-PD-L1 (10F.9G2) and anti-CD8 (YTS.169-4) mAbs were obtained from BioXCell. Rat IgG isotype control was from R&D Systems. […] In FIG. 11A-11G, Balb/c mice harboring CT-26 tumors received a suboptimal dose of 100 μg of anti-PD-1.
C57BI/6 WT mice were injected subcutaneously with 5×10^4 B16F1 melanoma cells, and then injected with either PBS (control), pentoxifylline, or IT-603 (red arrows). Tumor growth was monitored daily.

Treg cells [1] = experiment: Flow cytometry of PTXF-treated Treg cells; type: cell-based, mice; conditions: 16 h stimulation, 500 μg/mL PTXF
Protocol: Cells were isolated from thymus, spleen and lymph nodes by mechanical desegregation in PBS+ FBS 3%. For tumor-infiltrating cell suspensions, total tumors were digested in DMEM (Gibco) supplemented with 1 mg/ml collagenase type IV (Sigma) and 1 mg/ml DNase I (Sigma) for 40 minutes at 37° C., followed by centrifugation in a 36% Percoll solution. For intracellular cytokines analyses, cell suspensions were incubated 3 hours with PMA (Sigma, 50 ng/mL), ionoymycin (Sigma, 1 μg/mL) in the presence of Golgi Plug (BD), or incubated 4 hours with mitomycin C-treated WT splenocytes loaded with […] gp100/pmel 17 peptide (Neo Biolab) in the presence of Golgi Plug. Cells were then stained with mAbs purchased by eBioscience or Tonbo Bioscience. Foxp3 and cytokine staining were performed using the eBioscience kit and protocol. Cells were acquired on a LSR II (BD Biosciences) and analyzed with FlowJo (Tree Star) software. […] Total cells suspensions were then activated with 5 μg/mL plate-coated anti-mCD3, 1 μg/ml soluble anti-mCD28 (BioLegend) and 10 ng/mL mIL-2, overnight at 37 C. Treg cells were then washed for further use.

Treg cells [2] = experiment: RNA-Seq of PTXF-treated Treg cells; type: cell-based, mice; conditions: 500 μg/mL PTXF
Protocol: Total cells suspensions were then activated with 5 μg/mL plate-coated anti-mCD3, 1 μg/ml soluble anti-mCD28 (BioLegend) and 10 ng/mL mIL-2, overnight at 37 C. Treg cells were then washed for further use. Total RNA was extracted using a Qiagen Rneasy Mini Kit with DNase treatment. For qPCR, RNA was reverse transcribed by Superscript III (Invitrogen). cDNAs were used for PCR with SYBR Green reagents (Quanta Biosciences, Gaithersburg, Md.) on a C1000 Touch thermal cycler (Bio Rad, Hercules, Calif.). The data was normalized to GAPDH expression. Primers sequences can be sent under request. For RNA-sequencing, libraries were prepared using an Illumina TruSeq Library Kit and sequenced by an Illumina 2500 instrument. Upon sequencing, raw FASTQ files were aligned on the mm10 genome using STAR aligner with default parameters (Dobin et al., 2013). Aligned fragments were then counted and annotated using Rsamtools v3.2 and the TxDb.Mmusculus.UCSC.mm10.knownGene' version 3.1.2 transcript database respectively. Normalized FPKM (fragments per kilobase per million mapped reads) were obtained using the robust FPKM estimate function of DeSeq2 v1.10.1 after removing the batch effect using the ComBat function of the sva package v3.18.0. Differentially expressed genes were obtained using the DESeqResults function of the same package. All p-values were adjusted for multiple comparison using the Benjamini & Hochberg FDR algorithm. For gene set enrichment analysis, the GSEA software was used, and Molecular Signature Database (MSigDB) including the ImmuneSigDB (C7 collection)(Godec et al., 2016; Subramanian et al., 2005).

Treg cells [3] = experiment: In vitro suppression assay with PTXF-treated Treg cells; type: cell-based, mice; conditions: vs mock-treated Treg cells
Treg cells [4] = experiment: In vivo suppression (colitis) assay with PTXF-treated Treg cells; parameters: species or system RAG1−/− mice; conditions: Treg transferred with naïve Tconv cells
Protocol: Total cells suspensions were then activated with 5 μg/mL plate-coated anti-mCD3, 1 μg/ml soluble anti-mCD28 (BioLegend) and 10 ng/mL mIL-2, overnight at 37 C. Treg cells were then washed for further use. For in vitro assays, CD45.1^+ naïve conventional CD4+ T cells were magnetically isolated (Miltenyi) and labelled with CellTrace Violet Proliferation Tracker (Life Technologies). They were cultured with T-cell depleted, mitomycin C-treated WT splenocytes and 2.5 μg/mL anti-mCD3, in the presence or not of treated Treg cells as described above. Proliferation of CD45.1^+ T cells was assessed by FACS at D4. The % of suppression was calculated as described. For in vivo assays, 4.10^5 naïve Tconv cells were isolated as above and transferred with or without 1.10^5 Treg cells, to the retro-orbital sinus of 6-9 week-old RAG1^−/− mice. Recipients were then weighed every week and euthanized when weight loss was >30%.

p65 = conditions: cited from earlier work

CC(=O)CCCCn1c(=O)c2c(ncn2C)n(C)c1=O [PTXF, 1-(5-oxohexyl)-3,7-dimethylxanthine]
size or composition of lymphoid tissues (B16F1 melanoma cells; B16F1-bearing mice, 50 mg/kg PTXF): No observable differences | adverse events (B16F1 melanoma cells; B16F1-bearing mice, 50 mg/kg PTXF, 50 mg/kg): no apparent adverse events; also recorded: No adverse effects of treatment were observed | pace of tumor growth (B16F1 melanoma cells; B16F1, daily injections of 50 mg/kg PTXF vs PBS): significant reduction in the pace of tumor growth | tumor growth (tumor volume, monitored daily) (B16F1 melanoma cells; B16F1 s.c., PTXF 50 mg/kg or IT-603 10 mg/kg on days 0, 2, 3, 4, 6 and 8, vs control vehicle): significantly reduced growth of the tumors | expression of Treg markers such as Foxp3, CD25 and Helios (Treg cells [1]): significantly decreased expression | Foxp3 mRNA (Treg cells [2]): unaffected | expression of Cbl-b (Treg cells [2]): up-regulated | expression of Gzmb and Tgfb1 (Treg cells [2]): decreased expression | expression of c-Rel mRNA (Treg cells [2]): unaffected | expression of genome organizer Sat1 (Treg cells [2]): up-regulated | suppression of effector T-cell proliferation by PTXF-treated Treg cells (Treg cells [3]): modest, but significant, reduction | prevention of colitis by PTXF-treated Treg (Treg cells [4]): completely failed to prevent colitis | levels of p65 in T cells in vitro (p65): unchanged
